No end group written: not given here.
How the values were obtained:
[1] = system: MDRAB (329-53)
Description: Synergy testing by checkerboard assay: Briefly, each 96-well microtiter plate was inoculated with two-fold serial dilutions of two antibiotics, ranging from 1/8 MIC to 2 MIC, such that one antibiotic was inoculated in the columns and the other in the rows. Then, MDRAB (329-53) cells were inoculated at a concentration of 1× 10^6 CFU/mL. The plates were incubated overnight under static conditions and observed visually.

[2] = system: Staphylococcus aureus [KCTC1621]; type: cell-based; conditions: KCTC1621, 24 h
Description: (§1) The MICs of the peptides were measured by the Clinical and Laboratory Standards Institute (CLSI) broth microdilution method, as outlined in a previous study.^[ [26], [27] ^]
(§2) Minimal Inhibitory Concentrations (MICs): Bacteria were grown to mid-logarithmic phase and diluted in Mueller-Hinton broth (MHB) (Difco). The bacterial suspension (1×10^6 CFU/well) was added to a 96-well microtiter plate along with a two-fold serial dilution of samples. The plate was incubated at 37 °C for 24 hours and the bacterial growth inhibition was assessed by measuring the optical density using an ELISA plate reader. The minimum inhibitory concentration (MIC) was defined as the lowest concentration of samples that prevented visible bacterial growth.

[3] = system: Staphylococcus epidermidis [KCTC 1917]; type: cell-based; conditions: KCTC 1917, 24 h
Description: as §1, §2

[4] = system: Pseudomonas aeruginosa [KCTC 1637]; type: cell-based; conditions: KCTC 1637, 24 h
Description: as §1, §2

[5] = system: Escherichia coli [KCTC 1682]; type: cell-based; conditions: KCTC 1682, 24 h
Description: as §1, §2

[6] = system: E. coli (KCTC 1682); type: cell-based, Escherichia coli; conditions: KCTC 1682, 24 h
Description: as §2, with “The salt sensitivity of the peptides was also analyzed. […] The MIC values in the physiological environment were determined as described above, and data were acquired from three independent assays performed in triplicate. Minimal” for “Minimal”

[7] = system: S. aureus (KCTC1621); type: cell-based, Staphylococcus aureus; conditions: KCTC1621, 24 h
Description: as §2, with “The salt sensitivity of the peptides was also analyzed. […] The MIC values in the physiological environment were determined as described above, and data were acquired from three independent assays performed in triplicate. Minimal” for “Minimal”

[8] = system: MDRE (328-84); type: cell-based, Enterobacter cloacae; conditions: 24 h
Description: as §1
(§3) Microbial Strains and Cell Lines: Multiple bacterial strains were used in this study. Standard stains included Escherichia coli (KCTC 1682), Pseudomonas aeruginosa (KCTC 1637), Staphylococcus aureus (KCTC1621) and Staphylococcus epidermidis (KCTC 1917) supplied from the Korean Collection for Type Cultures (KCTC) of the Korea Research Institute of Bioscience and Biotechnology (KRIBB). Clinically isolated multidrug-resistant bacteria included multidrug-resistant Klebsiella pneumonia (MDRKP 328-83), multidrug-resistant Acinetobacter baumannii (MDRAB 329-53), multidrug-resistant Pseudomonas aeruginosa (MDRPA 314-69), multidrug-resistant Enterobacter cloacae (MDRE 328-84) and multidrug-resistant Escherichia coli (MDREC 329-66) provided from Hospital of Chosun University, Korea. All bacterial strains were stored in 20% glycerol at −80 °C. For the subsequent experiments, the bacteria were recovered and cultured in the corresponding enrichment broth at 37 °C. The mouse macrophage RAW264.7, mouse fibroblast NIH-3T3 and human keratinocyte HaCat cells were cultured in Dulbecco’s modified Eagle’s medium (DMEM), supplemented with 10% (v/v) of fetal bovine serum (Sigma-Aldrich), 100 U/mL of penicillin and 0.1 mg/mL of streptomycin, at 37 °C in the presence of 5% CO2
as §2

[9] = system: MDRAB (329-53); type: cell-based, Acinetobacter baumannii; conditions: 24 h
Description: as §1, §3, §2

[10] = system: MDRPA (314-69); type: cell-based, Pseudomonas aeruginosa; conditions: 24 h
Description: as §1, §3, §2

[11] = system: MDREC (329-66); type: cell-based, Escherichia coli; conditions: 24 h
Description: as §1, §3, §2

[12] = system: MDRKP (328-83); type: cell-based, Klebsiella pneumonia; conditions: 24 h
Description: as §1, §3, §2

Row | Substance | Minimum inhibitory concentration (MIC), Staphylococcus aureus [KCTC1621] [2] | Minimum inhibitory concentration (MIC), Staphylococcus epidermidis [KCTC 1917] [3] | Minimum inhibitory concentration (MIC), Pseudomonas aeruginosa [KCTC 1637] [4] | Minimum inhibitory concentration (MIC), Escherichia coli [KCTC 1682] [5] | MIC against E. coli (KCTC 1682), 4 µM FeCl3 [6] | MIC against E. coli (KCTC 1682), 6 µM NH4Cl [6] | MIC against E. coli (KCTC 1682), 1 mM MgCl2 [6] | MIC against E. coli (KCTC 1682), 2.5 mM CaCl2 [6] | MIC against E. coli (KCTC 1682), 4.5 mM KCl [6] | MIC against E. coli (KCTC 1682), 150 mM NaCl [6] | MIC against E. coli (KCTC 1682), 25% Human serum [6] | MIC against E. coli (KCTC 1682), Control [6] | MIC against S. aureus (KCTC1621), 4 µM FeCl3 [7] | MIC against S. aureus (KCTC1621), 6 µM NH4Cl [7] | MIC against S. aureus (KCTC1621), 1 mM MgCl2 [7] | MIC against S. aureus (KCTC1621), 2.5 mM CaCl2 [7] | MIC against S. aureus (KCTC1621), 4.5 mM KCl [7] | MIC against S. aureus (KCTC1621), 150 mM NaCl [7] | MIC against S. aureus (KCTC1621), 25% Human serum [7] | MIC against S. aureus (KCTC1621), Control [7] | also measured
1 | MKSINLKKVVKSIIKKILNSSF-NH2 [Hirunipin 2] | 32 µg/mL | 32 µg/mL | 32 µg/mL | 32 µg/mL | 8 µg/mL | 8 µg/mL | 32 µg/mL | 8 µg/mL | 8 µg/mL | 16 µg/mL | 64 µg/mL | 32 µg/mL | 32 µg/mL | 16 µg/mL | 32 µg/mL | 32 µg/mL | 32 µg/mL | 32 µg/mL | 64 µg/mL | 32 µg/mL | MICB: MIC of hirunipin 2 alone [1]: 64 µg/mL; Minimum inhibitory concentrations, MDRE (328-84) [8]: 32 µg/mL; Minimum inhibitory concentrations, MDRAB (329-53) [9]: 64 µg/mL; Minimum inhibitory concentrations, MDRPA (314-69) [10]: 16 µg/mL; Minimum inhibitory concentrations, MDREC (329-66) [11]: 16 µg/mL; Minimum inhibitory concentrations, MDRKP (328-83) [12]: 128 µg/mL
2 | YFKIIKFLPKALKCLLPQKHKEHGNL-NH2 [Hirunipin 3] | 128 µg/mL | 64 µg/mL | 128 µg/mL | 128 µg/mL | 32 µg/mL | 64 µg/mL | 256 µg/mL | 32 µg/mL | 128 µg/mL | 128 µg/mL | 256 µg/mL | 128 µg/mL | >256 µg/mL | 256 µg/mL | 256 µg/mL | 256 µg/mL | 256 µg/mL | 256 µg/mL | >256 µg/mL | 128 µg/mL | Minimum inhibitory concentrations, MDRE (328-84) [8]: >128 µg/mL; Minimum inhibitory concentrations, MDRAB (329-53) [9]: >128 µg/mL; Minimum inhibitory concentrations, MDRPA (314-69) [10]: >128 µg/mL; Minimum inhibitory concentrations, MDREC (329-66) [11]: 128 µg/mL; Minimum inhibitory concentrations, MDRKP (328-83) [12]: >128 µg/mL
3 | LLKKLLRSLIKPAIMKIINTPPQEKLQK-NH2 [Hirunipin 1] | 64 µg/mL | 32 µg/mL | 32 µg/mL | 64 µg/mL | 128 µg/mL | 128 µg/mL | 256 µg/mL | 256 µg/mL | 256 µg/mL | 256 µg/mL | 128 µg/mL | 64 µg/mL | 64 µg/mL | 256 µg/mL | 256 µg/mL | 256 µg/mL | 256 µg/mL | 256 µg/mL | 256 µg/mL | 64 µg/mL | Minimum inhibitory concentrations, MDRE (328-84) [8]: >128 µg/mL; Minimum inhibitory concentrations, MDRAB (329-53) [9]: >128 µg/mL; Minimum inhibitory concentrations, MDRPA (314-69) [10]: 64 µg/mL; Minimum inhibitory concentrations, MDREC (329-66) [11]: 64 µg/mL; Minimum inhibitory concentrations, MDRKP (328-83) [12]: >128 µg/mL

Reference: article PMC11905058, “Novel Leech Antimicrobial Peptides, Hirunipins: Real‐Time 3D Monitoring of Antimicrobial and Antibiofilm Mechanisms Using Optical Diffraction Tomography” (Advanced Science, 2025)
